Measured values taken from US7585851B2, “3′-prodrugs of 2′-deoxy-β-L-nucleosides” (priority 2000, dated 2009).

What was measured:
[1] = Cytotoxicity in 2.2.15 cells; conditions: human, 2.2.15 hepatoma cells
[2] = test system: human granulocyte-macrophage colony-forming (CFU-GM) progenitor cells; assay type: cell-based; conditions: human bone marrow clonogenic assay
From the text: (§1) In particular, anemia and neutropenia are the most common drug-related clinical toxicities associated with the anti-HIV drug zidovudine (ZDV).

[3] = test system: human erythroid burst-forming (BFU-E) progenitor cells; assay type: cell-based; conditions: human bone marrow clonogenic assay
From the text: as §1

HBV = experiment: Anti-HBV activity in HBV-expressing 2.2.15 cells (HBV DNA reduction)
[4] = test system: human hepatoma cell line 2.2.15; experiment: Cytotoxicity in 2.2.15 cells; conditions: 2.2.15 cells; 50% inhibition of neutral red dye uptake (Table 25)

Structure (SMILES) | CC50 [1] [µM] | IC50 [2] [µM] | IC50 [3] [µM] | S.I. (CC50/EC90) (HBV; 2.2.15 cells) | EC90 (HBV; Hepatitis B virus) [µM] | CC50 [4] [µM]
Nc1ccn([C@@H]2CS[C@H](CO)O2)c(=O)n1 [lamivudine, (−)-enantiomer of cis-2-hydroxymethyl-5-(cytosin-1-yl)-1,3-oxathiolane, reference compound] | > 1000 | > 10 | > 10 | >5,000 | 0.18 ± 0.007 | 
Cc1cn([C@@H]2C[C@@H](O)[C@H](CO)O2)c(=O)[nH]c1=O [L-dT, β-L-2′-deoxythymidine] |  |  |  |  |  | 3020
